Measurements from patent US20150344822A1, “Decontaminant and Process for Decontamination of Chemicals from Infrastructural Materials” (priority 2014, published 2015).
Where “and” joins values, the source holds several entries; their conditions need not be identical. Identical values can stand only once. Like-named read-outs stand apart in the source and are kept apart here.

What was measured:
[1] = hazardous ingredient of the product; cited from earlier work
[2] = cited from earlier work
rat = settings: oral (rat); cited from earlier work
[3] = product as supplied; cited from earlier work
[4] = Task 2: efficacy of decontamination agents (extraction and subsequent rinses); settings: for Aqueous concentration of mercury, Extraction: extractant hypochlorite (300 mg/L), mercury input 19530.00 mg/L, adhered 7 days, 20-25° C.
Source text: The pipe materials used for subtask 2 were DIE, DIW, PVC and copper. […] Types of interactions included scrubbing, flushing, recirculation, shaking and static equilibrium.
After equilibration, the contaminant was extracted using the various decontamination agents. […] Surfactant molecules have both hydrophilic and hydrophobic parts, and the most attractive place for them in water is at the surface where the forces of both attraction and repulsion to water can be satisfied. […] The aqueous solutions of these decontaminants were prepared using the available chemical decontaminants and diluting them to required concentration by adding DI water. Appropriate volume corrections were conducted for NaOCl considering available solution concentration of NaOCl received from the supplier.
(§1) The sample was introduced via a peristaltic pump by pneumatic nebulization into radio frequency plasma where energy transfer processes cause desolvation, atomization, and ionization. The ions were extracted from the plasma through a pumped vacuum interface and separated on the basis of their mass-to-charge ratio by a quadrupole mass spectrometer. The ions transmitted through the quadrupole were registered by a continuous dynode electron multiplier and the ion information was processed by a data handling system.

[5] = Task 1A: surface adherence of contaminants on pipe materials, 7 days at 20-25° C.; format: physicochemical; settings: comparison of Tasks 1A, 1B, 1C
[6] = Task 1: removal of adhered chemicals by three de-ionized water rinses and extractant; settings: for Aqueous concentration of mercury, Extraction: adherence at 4-6° C.; for Aqueous concentration, Extractant: after 24 hours; for Aqueous concentration, Extractant / Aqueous concentration of mercury, Extractant: 20-25° C.; for Aqueous concentration of mercury, Extractant: after 7 days, initial 22829.8 mg/L, extractant = chemical decontaminant of the present disclosure
Protocol: In Task 1, the pipes were rinsed immediately after the equilibrated solution was transferred into the analytical sample vials. Thereafter, de-ionized water at room temperature was used for rinsing the pipes. Three consecutive rinses were conducted using de-ionized water at room temperature. In case of aged black iron pipe, the aqueous solution was centrifuged before transferring to the sample vials to avoid entrainment of colloidal corroded iron particles in the solution. During the extraction step, the pipes were about half filled with the extraction solution and wrapped tightly. The 4″ diameter pipes were filled with 150 mL of extraction solution. The copper, PVC, and HDPE pipes were filled with 55 mL of extraction solution, while the epoxy and the aged metal pipes were filled with 85 mL of extraction solution. […] After shaking for 1 hour, the pipes were flipped in order to get contact with the entire inner surface of the pipe. The extraction solutions were transferred to the appropriate sample vial.
as §1
In this table, m0 and mi are the initial and final amounts of chemical in water.
Water rinse was done to remove the weakly-bound chemicals, while the strongly-bound chemicals, if any, were extracted with stronger solvents.

## CCCCOCCO [Butyl cellosolve]
[1]
  PEL: 25 mg/L
  TLV: 25 mg/L

## COP(=O)(OC)OC=C(Cl)Cl [Dichlorvos]
[2]; at pH 4
  Hydrolysis: slow
[2]; at pH 9
  Hydrolysis: rapid
[2]; between pH 4 and pH 9
  Half-life: 20 to 80 h
rat
  LD50: LD50 oral (rat) 56 to 80 mg/kg

## COP(=O)(OC)O/C(C)=C/C(=O)N(C)C [Dicrotophos]
[2]; at 75° C.
  time after which decomposed: 31 days
[2]; at 90° C.
  time after which decomposed: 7 days
[2]; stored in glass or polythene containers up to 40° C.
  storage stability: stable
rat
  LD50: Oral LD50 for rats is 16- 21 mg/kg.

## OCl [Sodium Hypochlorite, Sodium hypochlorite]
[3]
  pH: ~13
[4]; COP (copper) pipe, listed as Hypochlorite
  Aqueous concentration of mercury, Extraction: 11.01 mg/L and 8.48 mg/L
[4]; COP (copper) pipe, listed as hypochlorite
  Aqueous concentration of mercury, Extraction: 8.5 mg/L and 11 mg/L
[4]; DIE pipe
  Aqueous concentration of mercury, Extraction: 133.91 mg/L and 136.16 mg/L
[4]; DIW pipe, listed as Hypochlorite
  Aqueous concentration of mercury, Extraction: 251.05 mg/L and 315.47 mg/L
[4]; DIW pipe, listed as hypochlorite
  Aqueous concentration of mercury, Extraction: 251 mg/L and 315 mg/L
[4]; PVC pipe
  Aqueous concentration of mercury, Extraction: 290.19 mg/L and 172.41 mg/L
[4]; mercury adhered on DIW and copper pipes
  effectiveness in releasing / removing adhered mercury: not effective
[4]; mercury and organophosphates, solid surfaces
  removal / recovery of contaminants compared with the other decontaminants tested: significantly less

## O=C(O)CF [fluoroacetate]
[5]
  Adhesion coefficients under 7 days and room temperature condition versus 24 hours or low temperature conditions: generally higher

## Mercuric chloride [Mercury]
[6]; Copper pipe, Mercury #1, initial 7737.5 mg/L
  Aqueous concentration of mercury, Extraction: 515.7 mg/L and 272.8 mg/L
[6]; Copper pipe, Mercury #1, initial 8171.5 mg/L
  Aqueous concentration, Extractant: 702.4 mg/L and 559.3 mg/L
[6]; Copper pipe, Mercury #2, initial 23950.0 mg/L
  Aqueous concentration, Extractant: 1820.0 mg/L and 2140.0 mg/L
[6]; Copper pipe, Mercury #2, initial 28800.0 mg/L
  Aqueous concentration of mercury, Extraction: 2930.0 mg/L and 2800.0 mg/L
[6]; Copper pipe
  Aqueous concentration of mercury, Extractant: 7368.1 mg/L and 6413.5 mg/L
[6]; DIE pipe
  Aqueous concentration of mercury, Extractant: 187.6 mg/L and 179.1 mg/L
[6]; DIO pipe
  Aqueous concentration of mercury, Extractant: 9532.2 mg/L and 7156.1 mg/L
[6]; DIW pipe, Mercury #1, initial 8171.5 mg/L
  Aqueous concentration, Extractant: 684.6 mg/L and 914.1 mg/L
[6]; DIW pipe, Mercury #2, initial 28800.0 mg/L
  Aqueous concentration of mercury, Extraction: 1520.0 mg/L and 2290.0 mg/L
[6]; HDPE pipe
  Aqueous concentration of mercury, Extractant: 0.3 mg/L and 0.5 mg/L
[6]; PVC pipe, Mercury #1, initial 7737.5 mg/L
  Aqueous concentration of mercury, Extraction: 1.6 mg/L and 2.6 mg/L
